Measurements as given in PubChem BioAssay AID330 (DTP/NCI, 2004).
“And” between values parts separate entries of the source, which are not always exact repeats. Identical values can stand only once. Toxic doses and inconclusive results are not listed.

Test system: P388 leukemia ip, CD2F1 mice, survival T/C
Assay: NCI In Vivo Anticancer Drug Screen. Data for tumor model P388 Leukemia (intraperitoneal) in CD2F1 (CDF1) mice
Settings: endpoint: median survival time, higher = longer survival
Method in brief: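 Mice carrying the transplanted tumor received test compound or vehicle. Survival was recorded in each group, and the value is the treated-group measurement divided by that of the vehicle-treated control group.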

[1] = dose: 60.0 mg/kg/injection, schedule: Q01DX005 (ip), vehicle: saline
[2] = dose: 120.0 mg/kg/injection, schedule: Q01DX005 (ip), vehicle: saline
[3] = dose: 240.0 mg/kg/injection, schedule: Q01DX005 (ip), vehicle: saline
[4] = dose: 50.0 mg/kg/injection, schedule: Q01DX009 (ip), vehicle: saline
[5] = dose: 100.0 mg/kg/injection, schedule: Q01DX009 (ip), vehicle: saline
[6] = dose: 200.0 mg/kg/injection, schedule: Q01DX009 (ip), vehicle: saline
[7] = dose: 25.0 mg/kg/injection, schedule: Q01DX009 (ip), vehicle: saline

What does the source list for `O=C1c2cccc3cc([N+](=O)[O-])cc(c23)C(=O)N1CCNCCNCCNCCN1C(=O)c2cccc3cc([N+](=O)[O-])cc(c23)C1=O`?
T/C (dose: 5.0 mg/kg/injection, schedule: Q04DX002 (ip), vehicle: saline with Tween-80): 107 % of control and 124 % of control; T/C (dose: 10.0 mg/kg/injection, schedule: Q04DX002 (ip), vehicle: saline with Tween-80): 122 % of control; T/C (dose: 80.0 mg/kg/injection, schedule: Q04DX002 (ip), vehicle: saline with Tween-80): 122 % of control

How did the T/C (dose: 50.0 mg/kg/injection, schedule: Q04DX003 (ip), vehicle: saline) turn out when `CCN(CC)CCOCC(=O)Nc1c(C)cccc1Cl` was run?
The T/C was 102 % of control and 113 % of control and 96 % of control.

And the T/C (dose: 100.0 mg/kg/injection, schedule: Q04DX003 (ip), vehicle: saline)?
The T/C was 100 % of control and 101 % of control and 120 % of control.

What about the T/C (dose: 200.0 mg/kg/injection, schedule: Q04DX003 (ip), vehicle: saline) of the same compound?
Its T/C is 88 % of control and 92 % of control and 95 % of control.

With `C[N+]12CCO[B-]1(c1ccccc1)OCC2` (stereo not drawn) as the compound, how does the T/C [1] read?
The T/C was 108 % of control.

What about the T/C [2] of the same compound?
Its T/C is 100 % of control.

And the T/C [3]?
Its T/C is 100 % of control.

What does the source list for `O=C1S/C(=C2\C(=O)N(CN3CCOCC3)c3ccc(Br)cc32)C(=O)N1CN1CCOCC1`?
T/C (dose: 50.0 mg/kg/injection, schedule: Q01DX005 (ip), vehicle: Klucel (hydroxypropylcellulose) (HPC)): 100 % of control; T/C (dose: 100.0 mg/kg/injection, schedule: Q01DX005 (ip), vehicle: Klucel (hydroxypropylcellulose) (HPC)): 106 % of control; T/C (dose: 200.0 mg/kg/injection, schedule: Q01DX005 (ip), vehicle: Klucel (hydroxypropylcellulose) (HPC)): 102 % of control

`CNC(=S)N(C)C` was tested. Which T/C [4] did it give?
Its T/C is 98 % of control.

And the T/C [5]?
Its T/C is 99 % of control.

And the T/C [6]?
The T/C was 109 % of control.

Which results are given for `CCCCCCCCCCCCCCCCCCN(CCCCCCCCCCCCCCCCCC)c1ccc(/C=C/c2ccnc3ccccc23)cc1`?
T/C (dose: 25.0 mg/kg/injection, schedule: Q01DX009 (ip), vehicle: Klucel (hydroxypropylcellulose) (HPC)): 104 % of control; T/C (dose: 50.0 mg/kg/injection, schedule: Q01DX009 (ip), vehicle: Klucel (hydroxypropylcellulose) (HPC)): 95 % of control; T/C (dose: 100.0 mg/kg/injection, schedule: Q01DX009 (ip), vehicle: Klucel (hydroxypropylcellulose) (HPC)): 95 % of control; T/C (dose: 200.0 mg/kg/injection, schedule: Q01DX009 (ip), vehicle: Klucel (hydroxypropylcellulose) (HPC)): 104 % of control

`O=c1cc[nH]c(=S)[nH]1.[Pd]` was tested. Which T/C [7] did it give?
Its T/C is 89 % of control.

And the T/C [4]?
The T/C was 96 % of control.

And the T/C [5]?
Its T/C is 91 % of control.

What about the T/C [6] of the same compound?
Its T/C is 91 % of control.

How did the T/C (dose: 12.5 mg/kg/injection, schedule: Q04DX003 (ip), vehicle: saline with Tween-80) turn out when `OCC1OC(n2cnc3c(SCc4ccccn4)ncnc32)C(O)C1O` (stereo not drawn) was run?
The T/C was 109 % of control.

What about the T/C (dose: 25.0 mg/kg/injection, schedule: Q04DX003 (ip), vehicle: saline with Tween-80) of the same compound?
The T/C was 96 % of control.

And the T/C (dose: 50.0 mg/kg/injection, schedule: Q04DX003 (ip), vehicle: saline with Tween-80)?
Its T/C is 99 % of control.

And the T/C (dose: 100.0 mg/kg/injection, schedule: Q04DX003 (ip), vehicle: saline with Tween-80)?
The T/C was 96 % of control.

Which T/C (dose: 3.12 mg/kg/injection, schedule: Q01DX009 (ip), vehicle: suspension in saline) does the source give for `COc1cc(N(CCCl)CCCl)c(OC)cc1C=Nc1ccccc1C(=O)O` here?
The T/C was 114 % of control.

What about the T/C [7] of the same compound?
The T/C was 182 % of control.

Which T/C [1] does the source give for `COc1ccc2oc(-c3ccc(Cl)cc3)c(N3CCN(C)CC3)c2c1` here?
The T/C was 102 % of control and 93 % of control and 97 % of control.

And the T/C [2]?
The T/C was 102 % of control and 103 % of control and 105 % of control.

What about the T/C [3] of the same compound?
Its T/C is 122 % of control and 96 % of control.

For `Nc1c(S(=O)(=O)O)cc(Nc2ccc(S(=O)(=O)O)c(Nc3nc(Cl)nc(Cl)n3)c2)c2c1C(=O)c1ccccc1C2=O`, which T/C [1] is on record?
The T/C was 118 % of control.

What about the T/C [2] of the same compound?
The T/C was 110 % of control.

What about the T/C [3] of the same compound?
Its T/C is 110 % of control.

Which results are given for `O=C(CCCN1CCC(O)(c2cccc(C(F)(F)F)c2)CC1)c1ccc(F)cc1`?
T/C (dose: 18.75 mg/kg/injection, schedule: Q04DX003 (ip), vehicle: Klucel (hydroxypropylcellulose) (HPC)): 108 % of control; T/C (dose: 37.5 mg/kg/injection, schedule: Q04DX003 (ip), vehicle: Klucel (hydroxypropylcellulose) (HPC)): 112 % of control; T/C (dose: 75.0 mg/kg/injection, schedule: Q04DX003 (ip), vehicle: Klucel (hydroxypropylcellulose) (HPC)): 88 % of control
